The values that follow come from PubChem BioAssay (NCI).

Assay in all cases: NCI anticancer screen, dose series, 48 h
Experiment [1] has as its system SF-539 CNS.
For experiment [2], the system named is SNB-19 CNS.
Experiment [3] concerns SN12C renal.
Experiment [4] concerns IGROV1 ovarian.
Experiment [5] deals with SF-268 CNS.
Experiment [6] concerns SF-295 CNS.
The test system of experiment [7] is SR leukemia.
Experiment [8] has as its system RPMI-8226 leukemia.
Experiment [9] has as its system M14 melanoma.
Experiment [10] relates to HOP-92 NSCLC.
For experiment [11], the system named is K-562 leukemia.

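Cells were grown in 96-well plates and exposed to each compound for 48 hours at five concentrations; endpoints were interpolated linearly between bracketing concentrations, or set to the highest concentration if not reached. TGI denotes the concentration required for complete inhibition of growth.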

Turning to `Nc1nn2c(nc(N)c3c(N)[nH]nc32)c1N=Nc1ccc(Br)cc1`, the TGI in experiment [1] is 49.6 µM; in experiment [2], above 92.8 µM; in experiment [3], 56.7 µM; in experiment [4], above 100 µM; in experiment [5], 36.1 µM; in [6], above 100 µM. Besides, the TGI was above 100 µM in experiment [7]; above 100 µM in [8]; above 53.6 µM in experiment [9]; 28.1 µM in experiment [10]; above 100 µM in experiment [11].
With `O=C(CNc1ccccc1[N+](=O)[O-])Nn1c(-c2ccccc2)nc2ccccc2c1=O`, the TGI in experiment [1] was 44.5 µM; in [2], 47.8 µM; in experiment [3], 63.1 µM; in experiment [4], 34.8 µM; in [5] it was above 100 µM; in experiment [6], 46.5 µM. Besides, the TGI in experiment [7] was determined as 71.7 µM; in [8], 89.5 µM; in [9], 38.1 µM; in [10], 28.3 µM; in experiment [11], 41.9 µM.
For the compound `NC1=CN2c3ccccc3N(CC(=O)O)C2C=C1` (configuration not stated), the TGI in experiment [1], in experiment [2], in experiment [4], in experiment [5], in experiment [6] and in experiment [7] was above 100 µM each time. Moreover, the TGI in experiment [8], in experiment [9], in [10] and in experiment [11] was above 100 µM throughout.
Turning to `O=C(NCc1cccc2ccccc12)N/N=C\c1ccc(Cl)cc1`, the TGI in experiment [1], in experiment [2], in [3], in experiment [4], in experiment [5] and in experiment [6] was above 100 µM throughout. The TGI in experiment [7], in experiment [8], in experiment [9], in [10] and in [11] was above 100 µM throughout.
As to `COc1ccc(OC)c(NS(=O)(=O)c2ccc3nc(C)n(NS(=O)(=O)c4cc(OC)ccc4OC)c(=O)c3c2)c1`, the TGI in experiment [1], in experiment [2], in experiment [3], in experiment [4], in [5] and in [6] was above 100 µM throughout. For the same compound, the TGI in [7], in [8], in experiment [9], in experiment [10] and in [11] was above 100 µM throughout.
As for `CCNC(=O)c1c(O)c2ccccc2[nH]c1=O`, the TGI in experiment [1], in [2], in [3], in experiment [4], in [5] and in [6] was above 100 µM each time. Further, the TGI in experiment [7], in [8], in [10] and in experiment [11] was above 100 µM each time.
For `COc1ccc(N2C(=O)C3c4[nH]c5ccc(F)cc5c4C4CCC(c5ccccc5)CC4C3C2=O)cc1` (configuration not stated), the TGI is 27.9 µM in experiment [2]; above 100 µM in [3]; 56.2 µM in experiment [4]; 20.3 µM in experiment [5]; above 100 µM in experiment [6]; 36.1 µM in experiment [7]. In addition, the TGI in experiment [8] is above 100 µM; in experiment [9], 45.1 µM; in [10] it was 36.8 µM; in experiment [11], 14.2 µM.
As for `C=C1C(=O)O[C@@H]2C=C(C)C3=CC(=O)[C@](C)(C[C@H](OC(=O)/C(C)=C\C)[C@@H]12)O3`, the TGI stood at 6.09 µM in [1]; 22.4 µM in experiment [2]; 5.1 µM in [3]; 3.04 µM in experiment [4]; 6.47 µM in [6]; 0.786 µM in experiment [7]. Moreover, the TGI is 0.938 µM in experiment [8], 2.46 µM in [9], 2.18 µM in experiment [10] and 2.04 µM in experiment [11].
Consider `COc1cc2c(cc1OC)C1(COc3cc(O)c(O)c(O)c3C1=O)C2` (configuration not stated), for which the TGI in experiment [1], in experiment [2], in experiment [3], in experiment [4], in [5] and in experiment [6] was above 50 µM each time. Besides, the TGI in experiment [7], in experiment [8], in experiment [9] and in [11] was above 50 µM each time.
Regarding `COc1cc2cc(C(=O)N3CC(CCl)c4c3cc(N)c3ccccc43)[nH]c2c(OC)c1OC` (configuration not stated), the TGI is 10.5 µM in [2]; below 0.01 µM in [3]; 0.0401 µM in experiment [4]; below 0.01 µM in experiment [5]; below 0.01 µM in experiment [7]; below 0.0107 µM in [8]. In addition, the TGI in experiment [10] is 0.275 µM; in [11] it was below 0.01 µM.
With `CCOC(=O)/C(C#N)=C/c1ccnc2ccccc12`, the TGI is 50 µM in experiment [1]; above 100 µM in [2]; above 100 µM in [3]; above 100 µM in experiment [4]; above 100 µM in [5]; above 100 µM in [6]. Further, the TGI was 64.9 µM in [7], 92.5 µM in [8], above 100 µM in experiment [9] and above 100 µM in [10].
In the case of `Cc1cc(=O)oc2c(C)c(OCCCOc3ccc4c(C)cc(=O)oc4c3C)ccc12`, the TGI in experiment [1], in experiment [2], in experiment [4], in [5], in experiment [6] and in experiment [7] was above 100 µM throughout. Besides, the TGI in experiment [8], in experiment [9], in experiment [10] and in experiment [11] was above 100 µM throughout.
As to `COC(=O)[C@H](Cc1c[nH]c2ccccc12)NC(=O)c1ccc(CNC(=O)/C=C/c2cccc(Oc3ccccc3)c2)cc1`, the TGI in experiment [2], in experiment [3], in experiment [4], in [5], in [6] and in experiment [7] was above 100 µM throughout. The TGI in experiment [8], in [9], in experiment [10] and in experiment [11] was above 100 µM in each case.
